In patent US12527785B2, “Renin-angiotensin-aldosterone system (RAAS) inhibitors in the treatment of pancreatic ductal carcinoma” (OCHSNER CLINIC FOUNDATION, priority 2023, dated 2026):
Like-named read-outs stand apart in the source and are kept apart here.

Columns and labels:
PANC-1 cells = assay: WST1 cell proliferation assay, PANC-1 cells; type: cell-based, human; conditions: 10% FCS-DMEM
Procedure: (§1) PDA cell line (PANC-1 or HS766T) or patient cancer cells (PaCa9) were trypsinized with 1% trypsin in Hank's Balanced Salt Solution (HBSS), counted, washed, and resuspended in serum free AIM media (ThermoFisher Scientific, Waltham, MA) or complete Dulbecco's Modified Eagle Medium (DMEM) supplemented with 10% fetal bovine serum, […], 100 U/ml of penicillin G, and […] of streptomycin. Cells at a concentration of 2-4×10^4 cells/well in 100 μl culture medium were seeded in triplicate in 96 well plates, then cultured in a humidified incubator at 37° C. and 5% CO2. On the next day, cell supernatant was discarded and compounds (e.g., drugs) of the present disclosure in 200 μl medium were added with the concentrations indicated in the following Examples. After 72 hours of culture, cell proliferation reagent WST1 (20 μl/well, Sigma Aldrich Inc, St. Louis, MO) were added and plates were read using an ELISA reader at 2 hours and 4 hours under the wavelength of 450 nm. The measured absorbance (OD value) was recorded and graphed and statistically analyzed using GraphPad Prism 8, t-test, or t-test with Bonferroni correction.

HS766T cells = assay: WST1 cell proliferation assay, HS766T cells; type: cell-based; conditions: 10% FCS-DMEM
Procedure: as §1

[1] = test system: PaCa-9 PDAC patient tumor cells; assay: WST1 cell proliferation assay, PaCa-9 PDAC patient tumor cells; type: cell-based, human; conditions: 10% FCS-DMEM
Procedure: as §1, with “Louis, MO) were added and plates were read using an ELISA reader at 2 hours and 4 hours under the wavelength of 450 nm.” left out

[2] = Toxicity, body weight and deaths observed in the in vivo xenograft studies
Excerpt: Human PDCA cell line PANC-1 was transduced with pre-made lentiviral vectors encoding luciferase (firefly)/red fluorescent protein (RFP) to enable monitoring of the growth of primary tumor and metastasis. […] For in vivo experiments, Nonobese diabetic/severe combined immunodeficiencyNOD-SCID mice (Jackson Labs, Bar Harbor, ME, or inhouse breeding) were first brought under anesthesia with isoflurane (2.5% in 100% oxygen, 1 L/min) in an induction chamber and maintained under adequate anesthesia (isoflurane inhalation) while being laid on a warming pad throughout the surgical procedure. For tumor generation, 5×10^4 luciferase-tagged PANC-1 cells were co-inoculated with 3×10^5 lymph node stromal cell (LNSC) analog HK cells. The mice received a 0.75-1.2 cm long incision (on the left side of the body slightly medial to the splenic silhouette) to exteriorize the spleen and pancreas. While gently retracting the pancreas laterally, a 30 G needle was inserted along the length of the pancreas from the tail to the pancreatic head region. Then, 10 μl of cell suspension was injected as the needle was withdrawn to the mid-body of the pancreas. The needle was removed, and the area was inspected for leakage and bleeding. The pancreas and spleen were internalized with forceps and the abdominal muscle layer was closed with interrupted stitches (3-0 silk suture). The overlying skin was closed with a second set of interrupted stitches. Buprenorphine SR-LAB was injected subcutaneously immediately after the surgery for pain relief.
After the surgery, tumor growth and metastatic tumor burden were monitored and assessed weekly for luciferase activity by bioluminescence imaging (BLI) using Lago Imaging System (Spectral Instruments Imaging, Tucson, AZ). Mice were anesthetized using isoflurane for all imaging procedures. Mice were administered intraperitoneally with luciferin (10 mg/kg) and imaged in 10-20 minutes for maximum luciferase signal plateau. Images were analyzed using Aura Imaging software. […] […] […] Data was statistically analyzed using t-test, or t-test with Bonferroni correction.

[3] = Serum concentration of EMA401 after oral dosing in humans; type: in vivo, human
[4] = test system: PDCA cells (PANC-1, HS766T, PaCa9); assay: In vitro PDCA cell proliferation (WST1), summary statements over the cell lines tested; type: cell-based; conditions: 10 μM; all cell lines tested
Procedure: as §1

[5] = 100 mg EMA401 p.o. in men and women; cited from earlier work

COc1ccc2c(c1OCc1ccccc1)C[C@@H](C(=O)O)N(C(=O)C(c1ccccc1)c1ccccc1)C2 [EMA401]
cell proliferation, WST1 absorbance (OD value, 450 nm), mean (PANC-1 cells; EMA 10 μM, Table 1, 2 h, control 3.618): 2.976 | cell proliferation, WST1 absorbance (OD value, 450 nm), mean (PANC-1 cells; EMA 50 μM, Table 1, 2 h, control 3.618): 2.957 | cell proliferation, WST1 absorbance (OD value, 450 nm), mean (PANC-1 cells; EMA401 10 μM, Table 5A, 2×10^4 cells per well, Medium/DMSO 3.348): 2.872 | cell proliferation, WST1 absorbance (OD value, 450 nm), mean (PANC-1 cells; EMA401 50 μM, Table 5A, 2×10^4 cells per well, Medium/DMSO 3.348): 0.691 | cell proliferation, WST1 absorbance (OD value, 450 nm), mean (HS766T cells; EMA 10 μM, Table 2, 2 h, control 3.214): 1.360 | cell proliferation, WST1 absorbance (OD value, 450 nm), mean (HS766T cells; EMA 50 μM, Table 2, 2 h, control 3.214): 1.41 | cell proliferation, WST1 absorbance (OD value, 450 nm), mean (HS766T cells; EMA401 10 μM, Table 6A, 2×10^4 cells per well, control 3.339): 3.290 | cell proliferation, WST1 absorbance (OD value, 450 nm), mean (HS766T cells; EMA401 50 μM, Table 6A, 2×10^4 cells per well, control 3.339): 0.593 | cell proliferation, WST1 absorbance (OD value, 450 nm), mean ([1]; EMA 10 μM, Table 3, 1 h, Medium/DMSO 3.571): 2.088 | cell proliferation, WST1 absorbance (OD value, 450 nm), mean ([1]; EMA 10 μM, Table 4, 2 h, Medium/DMSO >3.60): 2.910 | cell proliferation, WST1 absorbance (OD value, 450 nm), mean ([1]; EMA 50 μM, Table 3, 1 h, Medium/DMSO 3.571): 2.000 | cell proliferation, WST1 absorbance (OD value, 450 nm), mean ([1]; EMA 50 μM, Table 4, 2 h, Medium/DMSO >3.60): 2.447 | cell proliferation, WST1 absorbance (OD value, 450 nm), mean ([1]; EMA401 10 μM, Table 7A, 2×10^4 cells per well, control 3.535): 3.257 | cell proliferation, WST1 absorbance (OD value, 450 nm), mean ([1]; EMA401 50 μM, Table 7A, 2×10^4 cells per well, control 3.535): 0.541 | End of study body weights versus control ([2]; 100 mg/kg EMA401 for 8 weeks): not different | Drug-related toxicity ([2]; 100 mg/kg EMA401 for 8 weeks (Table 16, Tables 17A-17C)): No drug-related toxicity was observed | Deaths during the study ([2]; 100 mg/kg EMA401 for 8 weeks, one control animal died): no EMA401-treated animal died | Serum concentration ([3]; 100 mg EMA401 p.o. in men and women, converted with mol wt 507.6): 2 µM | Serum concentration ([3]; 400 mg/day EMA401 in humans): 8 µM | Serum concentration ([3]; 600 mg/day p.o., extrapolated (would produce)): 12 µM | Effective (statistically significant, p<0.05, decrease in cell proliferation by WST1 assay) [4]: effective in all cell lines tested | Serum concentration [5]: 1000 ng/mL
